Data as given in patent publication US7037937B2, “Cytotoxic compounds” (Parker Hughes Institute, priority 2001, dated 2006).

Assays:
MOLT-3 Lymphoma = experiment: MTT assay, antiproliferative activity against MOLT-3; type: cell-based; conditions: Homo sapiens, 24–36 hours drug exposure, 1.0 to 250 μM
From the text: (§1) The following human cancer cell lines were used in the present study: human leukemic cell lines Molt-3 and NALM-6. These cell lines were obtained from American Type Culture Collection (Manassas, Va.) and maintained as continuous cell lines in Dulbecco's modified Eagles's medium supplemented with 10% fetal bovine serum and antibiotics.
(§2) The antiproliferative activity of the COBRA compounds was examined against a panel of 2 different human tumor cell lines using standard MTT (3-[4,5-dimethylthiazol-2-yl]-2,5-diphenyl tetrazolium bromide) assays (Narla, R. K., Liu, X. P., Klis, D. and Uckun, F. M., Clin. Cancer Res., 1998, 4, 2463), (Boehringer Mannheim Corp., Indianapolis, Ind.). Briefly, exponentially growing brain tumor cells were seeded into a 96-well plate at a density of 2.5×10^4 cells/well and incubated for 36 hours at 37° C. prior to drug exposure. On the day of treatment, culture medium was carefully aspirated from the wells and replaced with fresh medium containing the test compounds at concentrations ranging from 1.0 to 250 μM. Triplicate wells were used for each treatment. The cells were incubated with the various compounds for 24–36 hours at 37° C. in a humidified 5% CO2 atmosphere. To each well, 10 μl of MTT (0.5 mg/ml final concentration) was added and the plates were incubated at 37° C. for 4 hours to allow MTT to form formazan crystals by reacting with metabolically active cells. The formazan crystals were solubilized overnight at 37° C. in a solution containing 10% SDS in 0.01 M HCl. The absorbence of each well was measured in a microplate reader (Labsystems) at 540 nm and a reference wavelength of 690 nm. To translate the OD 540 values into the number of live cells in each well, the OD 540 values were compared to those on standard OD 540—versus—cell number curves generated for each cell line. The percent survival was calculated using the formula: survival=Live cell number[test]×100/Live cell number [control].
(§3) IC50 values were calculated by non-linear regression analysis using an Graphpad Prism software version 2.0 (Graphpad Software, Inc., San Diego, Calif.).

NALM-6 Leukemia = experiment: MTT assay, antiproliferative activity against NALM-6; type: cell-based; conditions: Homo sapiens, 24–36 hours drug exposure, 1.0 to 250 μM
From the text: as §1, §2, §3

**Q.** Which results are given for `CCCCCCCCCCCCC(O)c1[nH]cnc1C` (centres unmarked) [AC-15]?
**A.** IC50 (MOLT-3 Lymphoma): 9 µM; IC50 (NALM-6 Leukemia): 25 µM

**Q.** `CCCCCCCCCCCCC(O)c1ncc[nH]1` (centres unmarked) [AC-14] was tested. Which IC50 (MOLT-3 Lymphoma) did it give?
**A.** 58 µM

**Q.** What about the IC50 (NALM-6 Leukemia) of the same molecule?
**A.** 3 µM

**Q.** How did the IC50 (MOLT-3 Lymphoma) turn out when `CCCCCCCCCCCCC(O)c1ccccn1` (centres unmarked) [AC-17] was run?
**A.** 246 µM

**Q.** And the IC50 (NALM-6 Leukemia)?
**A.** 221 µM

**Q.** Which IC50 (MOLT-3 Lymphoma) does the source give for `CCCCCCCCCCCCC(O)c1ccco1` (centres unmarked) [AC-6] here?
**A.** > 250 µM

**Q.** What about the IC50 (NALM-6 Leukemia) of the same molecule?
**A.** 229 µM

**Q.** With `CCCCCCCCCCCCC(O)c1ccc(-c2ccccc2Cl)o1` (centres unmarked) [AC-7] as the molecule, how does the IC50 (MOLT-3 Lymphoma) read?
**A.** > 250 µM

**Q.** What about the IC50 (NALM-6 Leukemia) of the same molecule?
**A.** > 250 µM

**Q.** For `CCCCCCCCCCCCC(O)c1cccs1` (centres unmarked) [AC-10], which IC50 (MOLT-3 Lymphoma) is on record?
**A.** 125 µM

**Q.** And the IC50 (NALM-6 Leukemia)?
**A.** 204 µM

**Q.** For `CCCCCCCCCCCCC(O)c1cccc(C)n1` (centres unmarked) [AC-16], which IC50 (MOLT-3 Lymphoma) is on record?
**A.** > 250 µM

**Q.** What about the IC50 (NALM-6 Leukemia) of the same molecule?
**A.** 236 µM

**Q.** Which IC50 (MOLT-3 Lymphoma) does the source give for `CCCCCCCCCCCCC(O)c1ccc(C=O)s1` (centres unmarked) [AC-12] here?
**A.** 33 µM

**Q.** What about the IC50 (NALM-6 Leukemia) of the same molecule?
**A.** 6 µM

**Q.** What does the source list for `CCCCCCCCCCCCC(O)c1ccc(Br)s1` (centres unmarked) [AC-11]?
**A.** IC50 (MOLT-3 Lymphoma): 2 µM; IC50 (NALM-6 Leukemia): 4 µM

**Q.** Which IC50 (MOLT-3 Lymphoma) does the source give for `CCCCCCCCCCCCC(O)c1nccs1` (centres unmarked) [AC-13] here?
**A.** 4 µM

**Q.** What about the IC50 (NALM-6 Leukemia) of the same molecule?
**A.** > 250 µM
